Usually TGI stands for the concentration at which net growth stops. Low readings indicate greater sensitivity of the cells, high ones lower sensitivity of the cells. As a reminder, the GI50 is the concentration giving 50% growth inhibition.

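Cells were grown in 96-well plates and exposed to each compound for 48 hours at five concentrations; endpoints were interpolated linearly between bracketing concentrations, or set to the highest concentration if not reached. At the GI50, growth is halved. TGI marks complete inhibition of growth.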

One test has as its system LOX IMVI melanoma. Briefly: DTP human tumour cell line panel, 48 h.
In turn, `CNc1ncccc1Nc1cc(=O)n2c3cccnc3n(C)c2c1` gave a total growth inhibition concentration (TGI) of more than 100 µM.
On to `CC(C)CCNC(=O)c1ccc(CNC(=O)/C=C/c2cccc(Oc3ccccc3)c2)cc1`, for which the TGI was more than 100 µM.
On the same count and under the same terms, the figure for `COc1ccc2nc(N/N=C/c3sccc3C)cc(C)c2c1` is 32.9 µM; for `O=c1[nH]c2cc(C(F)(F)F)ccc2nc1C(F)(F)F` it is more than 100 µM; for `O=C1/C(=C\c2ccc([N+](=O)[O-])cc2)N(S(=O)(=O)c2ccccc2)c2ncccc21` it is 47.5 µM.
Still for that read-out and setting: to `C=CCCON(C(=O)OC(C)(C)C)c1ccccc1` belongs more than 100 µM; to `Nc1cc([N+](=O)[O-])ccc1C(=O)N1CCC[C@H]1CO`, more than 100 µM.
As to `CCOC(=O)Nc1cc2c(c(N)n1)N=C(c1ccc(OC)cc1)CN2`, the GI50 was 0.0144 µM and the TGI was determined as 3.15 µM.
`C#CCn1c(=O)c(I)cn(/C(=C/C(=O)OCC)C(=O)OCC)c1=O` had a TGI of more than 48.5 µM.
The molecule `C[C@@H](C(=O)O)N1C(c2ccco2)=C(/C(C=O)=C\c2ccco2)C(=O)/C1=C\c1ccco1` returned a TGI of more than 100 µM.
Same read-out and setting: to `O=C(/C=C/c1ccc(O)c(O)c1)OCC(OC(=O)/C=C/c1ccc(O)c(O)c1)C(=O)O` (stereo not given) belongs more than 100 µM.
Still for that read-out and setting: to `COc1ccc(CC2COc3cc(OC)cc(OC)c3C2=O)cc1` (stereo not given) belongs more than 100 µM.
On the same count and under the same terms, the figure for `COc1ccc(-c2c(C(C)=O)c(-c3ccccc3)n(C3OC(CO)C(O)C(O)C3O)c(=S)c2C#N)cc1` (stereo not given) is more than 100 µM; for `O=C1C2=Cc3ccccc3OC2(O)Oc2cc3ccccc3cc21` (stereo not given) it is more than 100 µM.

A further test relates to MALME-3M melanoma. Briefly: DTP human tumour cell line panel, 48 h.
Regarding `Clc1ccc(CCN(CCc2ccc(Cl)c(Cl)c2)CCN2CCCC2)cc1Cl`, the TGI was 3.5 µM.
`CC(C)(C)C1=C(Br)C(C(C)(C)C)OP1(=O)O` (stereo not given) came in with a concentration for total growth inhibition (TGI) of more than 100 µM.
In turn, `Cc1cccc(Cl)c1NCC(O)CN1CCN(C)CC1` (stereo not given) came in with a TGI of more than 100 µM.
Still for that read-out and setting: the figure for `ONC1=Nc2cc(Cl)ccc2C(=S)N2CSCC12` (stereo not given) is more than 100 µM; for `CC(C)NC(=O)OCc1c2c(n(C)c1COC(=O)NC(C)C)-c1cc(Cl)c(Cl)cc1CC2` it is more than 100 µM; for `CC(C)CCNC(=O)c1ccc(CNC(=O)/C=C/c2cccc(Oc3ccccc3)c2)cc1` it is more than 100 µM.
Same read-out and setting: to `COc1ccc2nc(N/N=C/c3sccc3C)cc(C)c2c1` belongs 31.3 µM; to `O=c1[nH]c2cc(C(F)(F)F)ccc2nc1C(F)(F)F`, more than 100 µM.
Regarding `O=C1/C(=C\c2ccc([N+](=O)[O-])cc2)N(S(=O)(=O)c2ccccc2)c2ncccc21`, the TGI stood at 33 µM.
On the same count and under the same terms, the figure for `C=CCCON(C(=O)OC(C)(C)C)c1ccccc1` is more than 100 µM; for `Nc1cc([N+](=O)[O-])ccc1C(=O)N1CCC[C@H]1CO` it is more than 100 µM.
`C#CCn1c(=O)c(I)cn(/C(=C/C(=O)OCC)C(=O)OCC)c1=O` came in with a TGI of 4.27 µM.
In the case of `C[C@@H](C(=O)O)N1C(c2ccco2)=C(/C(C=O)=C\c2ccco2)C(=O)/C1=C\c1ccco1`, the TGI was more than 100 µM.
The same measure, in the same setting: to `COc1ccc(CC2COc3cc(OC)cc(OC)c3C2=O)cc1` (stereo not given) belongs 75.3 µM.
Same read-out and setting: to `COc1ccc(-c2c(C(C)=O)c(-c3ccccc3)n(C3OC(CO)C(O)C(O)C3O)c(=S)c2C#N)cc1` (stereo not given) belongs more than 100 µM; to `O=C1C2=Cc3ccccc3OC2(O)Oc2cc3ccccc3cc21` (stereo not given), more than 100 µM.

The next test deals with MDA-N. Briefly: DTP human tumour cell line panel, 48 h.
`Clc1ccc(CCN(CCc2ccc(Cl)c(Cl)c2)CCN2CCCC2)cc1Cl` registered a TGI of 3.32 µM.
The same measure, in the same setting: the figure for `CC(C)(C)C1=C(Br)C(C(C)(C)C)OP1(=O)O` (stereo not given) is more than 100 µM.
Still for that read-out and setting: the figure for `Cc1cccc(Cl)c1NCC(O)CN1CCN(C)CC1` (stereo not given) is more than 100 µM.
On the same count and under the same terms, the figure for `ONC1=Nc2cc(Cl)ccc2C(=S)N2CSCC12` (stereo not given) is more than 100 µM; for `CC(C)NC(=O)OCc1c2c(n(C)c1COC(=O)NC(C)C)-c1cc(Cl)c(Cl)cc1CC2` it is more than 100 µM; for `CNC1(c2cc3ccccc3s2)CCCCC1` it is 39.9 µM.
With `CNc1ncccc1Nc1cc(=O)n2c3cccnc3n(C)c2c1`, the TGI was more than 100 µM.
Consider `CC(C)CCNC(=O)c1ccc(CNC(=O)/C=C/c2cccc(Oc3ccccc3)c2)cc1`, for which the TGI was determined as 38.3 µM.
Still for that read-out and setting: the figure for `COc1ccc2nc(N/N=C/c3sccc3C)cc(C)c2c1` is 39.4 µM; for `O=c1[nH]c2cc(C(F)(F)F)ccc2nc1C(F)(F)F` it is more than 100 µM; for `O=C1/C(=C\c2ccc([N+](=O)[O-])cc2)N(S(=O)(=O)c2ccccc2)c2ncccc21` it is 45.3 µM.
Same read-out and setting: the figure for `C=CCCON(C(=O)OC(C)(C)C)c1ccccc1` is more than 100 µM.
The same measure, in the same setting: the figure for `Nc1cc([N+](=O)[O-])ccc1C(=O)N1CCC[C@H]1CO` is more than 100 µM; for `CCOC(=O)Nc1cc2c(c(N)n1)N=C(c1ccc(OC)cc1)CN2` it is 0.0014 µM.
`C#CCn1c(=O)c(I)cn(/C(=C/C(=O)OCC)C(=O)OCC)c1=O`: the TGI stood at 9.41 µM.
On to `C[C@@H](C(=O)O)N1C(c2ccco2)=C(/C(C=O)=C\c2ccco2)C(=O)/C1=C\c1ccco1`, for which the TGI was more than 100 µM.
The same measure, in the same setting: the figure for `O=C(/C=C/c1ccc(O)c(O)c1)OCC(OC(=O)/C=C/c1ccc(O)c(O)c1)C(=O)O` (stereo not given) is more than 100 µM.
Still for that read-out and setting: the figure for `COc1ccc(CC2COc3cc(OC)cc(OC)c3C2=O)cc1` (stereo not given) is more than 100 µM; for `COc1ccc(-c2c(C(C)=O)c(-c3ccccc3)n(C3OC(CO)C(O)C(O)C3O)c(=S)c2C#N)cc1` (stereo not given) it is more than 100 µM; for `O=C1C2=Cc3ccccc3OC2(O)Oc2cc3ccccc3cc21` (stereo not given) it is more than 100 µM.

Another test has as its system NCI-H226 lung. Briefly: DTP human tumour cell line panel, 48 h.
As to `Clc1ccc(CCN(CCc2ccc(Cl)c(Cl)c2)CCN2CCCC2)cc1Cl`, the TGI is 4.07 µM.
In turn, `CC(C)(C)C1=C(Br)C(C(C)(C)C)OP1(=O)O` (stereo not given) gave a total growth inhibition concentration (TGI) of more than 100 µM.
The same measure, in the same setting: the figure for `Cc1cccc(Cl)c1NCC(O)CN1CCN(C)CC1` (stereo not given) is more than 100 µM; for `ONC1=Nc2cc(Cl)ccc2C(=S)N2CSCC12` (stereo not given) it is more than 100 µM; for `CC(C)NC(=O)OCc1c2c(n(C)c1COC(=O)NC(C)C)-c1cc(Cl)c(Cl)cc1CC2` it is more than 100 µM.
`CNC1(c2cc3ccccc3s2)CCCCC1` showed a total growth inhibition concentration (TGI) of 91.3 µM.
In the case of `CNc1ncccc1Nc1cc(=O)n2c3cccnc3n(C)c2c1`, the total growth inhibition concentration (TGI) was more than 100 µM.
Regarding `CC(C)CCNC(=O)c1ccc(CNC(=O)/C=C/c2cccc(Oc3ccccc3)c2)cc1`, the TGI is more than 100 µM.
On the same count and under the same terms, to `COc1ccc2nc(N/N=C/c3sccc3C)cc(C)c2c1` belongs 42.6 µM; to `O=c1[nH]c2cc(C(F)(F)F)ccc2nc1C(F)(F)F`, more than 100 µM; to `O=C1/C(=C\c2ccc([N+](=O)[O-])cc2)N(S(=O)(=O)c2ccccc2)c2ncccc21`, 83.5 µM.
Same read-out and setting: to `C=CCCON(C(=O)OC(C)(C)C)c1ccccc1` belongs more than 100 µM; to `Nc1cc([N+](=O)[O-])ccc1C(=O)N1CCC[C@H]1CO`, more than 100 µM.
Same read-out and setting: to `C#CCn1c(=O)c(I)cn(/C(=C/C(=O)OCC)C(=O)OCC)c1=O` belongs 47.7 µM; to `O=C(/C=C/c1ccc(O)c(O)c1)OCC(OC(=O)/C=C/c1ccc(O)c(O)c1)C(=O)O` (stereo not given), more than 100 µM.
Consider `COc1ccc(-c2c(C(C)=O)c(-c3ccccc3)n(C3OC(CO)C(O)C(O)C3O)c(=S)c2C#N)cc1` (stereo not given), for which the TGI is more than 100 µM.
The same measure, in the same setting: the figure for `O=C1C2=Cc3ccccc3OC2(O)Oc2cc3ccccc3cc21` (stereo not given) is more than 100 µM.

The subject of another test is OVCAR-8 ovarian. Briefly: DTP human tumour cell line panel, 48 h.
On to `Clc1ccc(CCN(CCc2ccc(Cl)c(Cl)c2)CCN2CCCC2)cc1Cl`, for which the TGI was 3.06 µM.
Still for that read-out and setting: the figure for `CC(C)(C)C1=C(Br)C(C(C)(C)C)OP1(=O)O` (stereo not given) is more than 100 µM.

Source of the values: PubChem BioAssay (NCI).
